Reference: PubChem BioAssay (NCI)
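Where inhibition never reached the appropriate level, the endpoint shown equals the highest concentration tested. Otherwise, values were interpolated linearly from a five-concentration, 48-hour dose response in 96-well plates. Here, GI50 denotes the concentration required for 50% inhibition of growth. TGI denotes the concentration required for complete inhibition of growth.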

Key:
Experiment in all cases: inhibition of tumour cell growth, NCI panel, 48 h
786-0 renal = tested on: 786-0 renal
A498 renal = tested on: A498 renal
A549 NSCLC = tested on: A549 NSCLC
ACHN renal = tested on: ACHN renal
BT-549 breast = tested on: BT-549 breast
CAKI-1 renal = tested on: CAKI-1 renal
COLO 205 colon = tested on: COLO 205 colon
DU-145 prostate = tested on: DU-145 prostate
EKVX NSCLC = tested on: EKVX NSCLC
HCC-2998 colon = tested on: HCC-2998 colon
HCT-116 colon = tested on: HCT-116 colon
HCT-15 colon = tested on: HCT-15 colon
HL-60(TB) leukemia = tested on: HL-60(TB) leukemia
HOP-62 NSCLC = tested on: HOP-62 NSCLC
HOP-92 NSCLC = tested on: HOP-92 NSCLC
HS 578T breast = tested on: HS 578T breast
HT29 colon = tested on: HT29 colon
IGROV1 ovarian = tested on: IGROV1 ovarian
K-562 leukemia = tested on: K-562 leukemia
KM12 colon = tested on: KM12 colon
LOX IMVI melanoma = tested on: LOX IMVI melanoma
M14 melanoma = tested on: M14 melanoma
MALME-3M melanoma = tested on: MALME-3M melanoma
MCF7 breast = tested on: MCF7 breast
MDA-MB-231 breast = tested on: MDA-MB-231 breast
MDA-MB-435 = tested on: MDA-MB-435
MOLT-4 leukemia = tested on: MOLT-4 leukemia
NCI-H226 lung = tested on: NCI-H226 lung
NCI-H23 lung = tested on: NCI-H23 lung
NCI-H460 lung = tested on: NCI-H460 lung
NCI-H522 lung = tested on: NCI-H522 lung
NCI/ADR-RES ovarian = tested on: NCI/ADR-RES ovarian
OVCAR-3 ovarian = tested on: OVCAR-3 ovarian
OVCAR-4 ovarian = tested on: OVCAR-4 ovarian
OVCAR-5 ovarian = tested on: OVCAR-5 ovarian
OVCAR-8 ovarian = tested on: OVCAR-8 ovarian
PC-3 prostate = tested on: PC-3 prostate
RPMI-8226 leukemia = tested on: RPMI-8226 leukemia
RXF 393 renal = tested on: RXF 393 renal
SF-268 CNS = tested on: SF-268 CNS
SF-295 CNS = tested on: SF-295 CNS
SF-539 CNS = tested on: SF-539 CNS
SK-MEL-2 melanoma = tested on: SK-MEL-2 melanoma
SK-MEL-28 melanoma = tested on: SK-MEL-28 melanoma
SK-MEL-5 melanoma = tested on: SK-MEL-5 melanoma
SK-OV-3 ovarian = tested on: SK-OV-3 ovarian
SN12C renal = tested on: SN12C renal
SNB-19 CNS = tested on: SNB-19 CNS
SNB-75 CNS = tested on: SNB-75 CNS
SR leukemia = tested on: SR leukemia
SW-620 colon = tested on: SW-620 colon
T-47D breast = tested on: T-47D breast
TK-10 renal = tested on: TK-10 renal
U251 CNS = tested on: U251 CNS
UACC-257 melanoma = tested on: UACC-257 melanoma
UACC-62 melanoma = tested on: UACC-62 melanoma
UO-31 renal = tested on: UO-31 renal

SMILES: Oc1c(Br)cc(Br)c2ccc(Cn3cc(-c4ccc(C(F)(F)F)cc4)nn3)nc12
- GI50 (786-0 renal): 1.92 µM
- TGI (786-0 renal): 4.54 µM
- GI50 (A498 renal): 3.36 µM
- TGI (A498 renal): 13.8 µM
- GI50 (A549 NSCLC): 16.6 µM
- TGI (A549 NSCLC): 34.3 µM
- GI50 (ACHN renal): 1.38 µM
- TGI (ACHN renal): 2.7 µM
- GI50 (BT-549 breast): 2.16 µM
- TGI (BT-549 breast): 5.98 µM
- GI50 (CAKI-1 renal): 1.27 µM
- TGI (CAKI-1 renal): 2.69 µM
- GI50 (COLO 205 colon): 1.28 µM
- TGI (COLO 205 colon): 2.93 µM
- GI50 (DU-145 prostate): 1.67 µM
- TGI (DU-145 prostate): 3.19 µM
- GI50 (EKVX NSCLC): 7.43 µM
- TGI (EKVX NSCLC): 20.9 µM
- GI50 (HCC-2998 colon): 8.87 µM
- TGI (HCC-2998 colon): 22.6 µM
- GI50 (HCT-116 colon): 0.586 µM
- TGI (HCT-116 colon): 2.05 µM
- GI50 (HCT-15 colon): 1.56 µM
- TGI (HCT-15 colon): 3.46 µM
- GI50 (HL-60(TB) leukemia): 0.674 µM
- TGI (HL-60(TB) leukemia): 3.06 µM
- GI50 (HOP-62 NSCLC): 15.6 µM
- TGI (HOP-62 NSCLC): 30.8 µM
- GI50 (HOP-92 NSCLC): 1.52 µM
- TGI (HOP-92 NSCLC): 4.4 µM
- GI50 (HS 578T breast): 3.03 µM
- TGI (HS 578T breast): 10.3 µM
- GI50 (HT29 colon): 1.92 µM
- TGI (HT29 colon): 4.55 µM
- GI50 (IGROV1 ovarian): 1.49 µM
- TGI (IGROV1 ovarian): 3.25 µM
- GI50 (K-562 leukemia): 0.41 µM
- TGI (K-562 leukemia): 11.8 µM
- GI50 (KM12 colon): 8.84 µM
- TGI (KM12 colon): 21.4 µM
- GI50 (LOX IMVI melanoma): 0.379 µM
- TGI (LOX IMVI melanoma): 1.52 µM
- GI50 (M14 melanoma): 1.81 µM
- TGI (M14 melanoma): 4.44 µM
- GI50 (MALME-3M melanoma): 1.65 µM
- TGI (MALME-3M melanoma): 3.67 µM
- GI50 (MCF7 breast): 0.532 µM
- TGI (MCF7 breast): 2.36 µM
- GI50 (MDA-MB-231 breast): 2.06 µM
- TGI (MDA-MB-231 breast): 5.02 µM
- GI50 (MDA-MB-435): 1.85 µM
- TGI (MDA-MB-435): 4.39 µM
- GI50 (MOLT-4 leukemia): 1.01 µM
- TGI (MOLT-4 leukemia): 5.76 µM
- GI50 (NCI-H226 lung): 4.46 µM
- TGI (NCI-H226 lung): 19.7 µM
- GI50 (NCI-H23 lung): 2.31 µM
- TGI (NCI-H23 lung): 6.18 µM
- GI50 (NCI-H460 lung): 19 µM
- TGI (NCI-H460 lung): 37.3 µM
- GI50 (NCI-H522 lung): 1.08 µM
- TGI (NCI-H522 lung): 3.01 µM
- GI50 (NCI/ADR-RES ovarian): 21.1 µM
- TGI (NCI/ADR-RES ovarian): 71.7 µM
- GI50 (OVCAR-3 ovarian): 1.42 µM
- TGI (OVCAR-3 ovarian): 2.8 µM
- GI50 (OVCAR-4 ovarian): 1.45 µM
- TGI (OVCAR-4 ovarian): 3.11 µM
- GI50 (OVCAR-5 ovarian): 3.45 µM
- TGI (OVCAR-5 ovarian): 12.9 µM
- GI50 (OVCAR-8 ovarian): 2.62 µM
- TGI (OVCAR-8 ovarian): 7.76 µM
- GI50 (PC-3 prostate): 2.9 µM
- TGI (PC-3 prostate): 12.4 µM
- GI50 (RPMI-8226 leukemia): 1.59 µM
- TGI (RPMI-8226 leukemia): 5.6 µM
- GI50 (RXF 393 renal): 0.662 µM
- TGI (RXF 393 renal): 2.17 µM
- GI50 (SF-268 CNS): 4.7 µM
- TGI (SF-268 CNS): 17.9 µM
- GI50 (SF-295 CNS): 17.2 µM
- TGI (SF-295 CNS): 31.2 µM
- GI50 (SF-539 CNS): 1.59 µM
- TGI (SF-539 CNS): 3.01 µM
- GI50 (SK-MEL-2 melanoma): 2.73 µM
- TGI (SK-MEL-2 melanoma): 9.67 µM
- GI50 (SK-MEL-28 melanoma): 1.7 µM
- TGI (SK-MEL-28 melanoma): 3.44 µM
- GI50 (SK-MEL-5 melanoma): 3.16 µM
- TGI (SK-MEL-5 melanoma): 11.7 µM
- GI50 (SK-OV-3 ovarian): 17.8 µM
- TGI (SK-OV-3 ovarian): 32.1 µM
- GI50 (SN12C renal): 3.53 µM
- TGI (SN12C renal): 14.4 µM
- GI50 (SNB-19 CNS): 11.1 µM
- TGI (SNB-19 CNS): 24.5 µM
- GI50 (SNB-75 CNS): 1.49 µM
- TGI (SNB-75 CNS): 8.04 µM
- GI50 (SR leukemia): 0.794 µM
- TGI (SR leukemia): 5.86 µM
- GI50 (SW-620 colon): 0.548 µM
- TGI (SW-620 colon): 2.13 µM
- GI50 (T-47D breast): 1.72 µM
- TGI (T-47D breast): 5.84 µM
- GI50 (TK-10 renal): 1.82 µM
- TGI (TK-10 renal): 3.79 µM
- GI50 (U251 CNS): 4.42 µM
- TGI (U251 CNS): 16.5 µM
- GI50 (UACC-257 melanoma): 1.31 µM
- TGI (UACC-257 melanoma): 3.19 µM
- GI50 (UACC-62 melanoma): 3.4 µM
- TGI (UACC-62 melanoma): 14.4 µM
- GI50 (UO-31 renal): 1.68 µM
- TGI (UO-31 renal): 5.03 µM
